In patent US12545704B2, “Peptide for treating inflammation and wounds” (NIBEC CO., LTD., priority 2019, dated 2026):
No end group written: not given here.

Assays:
[1] = system: DSS-induced acute inflammatory bowel disease; assay: Therapeutic effect in animal model of DSS-induced acute inflammatory bowel disease; assay type: in vivo, ICR mice
Protocol: In order to confirm the therapeutic effect of the synthesized peptide in animals, acute inflammatory bowel disease was induced with DSS in ICR mice (Orient Bio), and simultaneously, the synthesized peptide was injected thereto. Inflammation was induced in mice using 5% DSS as drinking water for 7 days, and simultaneously, the synthesized peptide was IP-injected thereto. The normal group (Normal, n=6) was not treated with DSS, and in the untreated group (No treatment, n=6), only DSS was used, and no drug was injected. The positive control group (SAHA, Sigma-Aldrich, 25 mg/kg, n=6), the immunomodulatory control group (Anti-TNF-a antibody, Pfizer, 1 mg/kg, n=6), and the peptide of SEQ ID NO: 1 (50 mg/kg, n=6) were injected once daily. After 7 days, mice were sacrificed by CO2 hyperventilation, the colons were collected, and the lengths thereof were compared. Additionally, the tissue was fixed and processed to prepare a paraffin block, and H&E staining was performed to determine whether the intestinal tissue was damaged.

[2] = IVIS distribution of Cy5.5-labeled peptide in DSS-induced acute inflammatory bowel disease model; assay type: in vivo; details: IP injection, DSS mice, 30, 60 and 180 minutes, FIG. 7
From the text: In order to confirm distribution of the synthesized peptide to the colon, inflammation was induced in mice using 5% DSS as drinking water for 7 days, after which the Cy5.5-labeled peptide of SEQ ID NO: 1 was IP-injected thereto.

E-cadherin = assay: Real-time RT-PCR of wound-healing marker E-cadherin in colonic epithelial cells; assay type: cell-based; details: Caco-2 cells; 50 and 100 μg/ml; 3 days; FIG. 4
Protocol: (§1) In order to confirm the expression level of the wound-healing marker in colonic epithelial cells (Caco-2 cell, ATCC® HTB-37™) by the peptide according to the present invention, colonic epithelial cells were dispensed in an amount of 5×10^6 cells/well in a 6-well plate and then cultured for 24 hours in DMEM (Dulbecco's Modified Eagle Medium, Gibco). The cells were treated with the peptides of SEQ ID NOS: 1, 2, and 3 at concentrations of 50 and 100 μg/ml and then cultured for up to 3 days. After 3 days, the cells were harvested and the gene expression levels of E-cadherin protein, which is highly expressed in colonic epithelial cells, and ZO-1 protein, which is highly expressed at the tight junction between colonic epithelial cells, were measured through real-time RT-PCR.
(§2) RNA was extracted from the obtained cells using TRIzol, and cDNA was synthesized using a kit from Thermo Scientific (cat. No. K1641). The same amount of cDNA was amplified by 40 cycles at 95° C.-60° C. using a SYBR green PCR master mix and a StepOnePlus™ Real-Time PCR System available from Applied Biosystems, and the ΔΔct values of individual groups were compared. The nucleotide sequences of the PCR primers used for amplification of each gene are as follows.

type VII collagen [3] = target: T1, type VII collagen (Homo sapiens, UniProt Q02388); assay: Slot blotting, selectivity to collagen types: type VII (Experimental Example 2); assay type: binding; details: for peptide concentration at which binding to type VII collagen was observed: peptide at 5, 10, 25, 50 and 100 μg/mL, FIG. 3
T1 construct: purchased MyBioSource, Inc. MBS2018615
T1 sequence (Q02388 17-2944): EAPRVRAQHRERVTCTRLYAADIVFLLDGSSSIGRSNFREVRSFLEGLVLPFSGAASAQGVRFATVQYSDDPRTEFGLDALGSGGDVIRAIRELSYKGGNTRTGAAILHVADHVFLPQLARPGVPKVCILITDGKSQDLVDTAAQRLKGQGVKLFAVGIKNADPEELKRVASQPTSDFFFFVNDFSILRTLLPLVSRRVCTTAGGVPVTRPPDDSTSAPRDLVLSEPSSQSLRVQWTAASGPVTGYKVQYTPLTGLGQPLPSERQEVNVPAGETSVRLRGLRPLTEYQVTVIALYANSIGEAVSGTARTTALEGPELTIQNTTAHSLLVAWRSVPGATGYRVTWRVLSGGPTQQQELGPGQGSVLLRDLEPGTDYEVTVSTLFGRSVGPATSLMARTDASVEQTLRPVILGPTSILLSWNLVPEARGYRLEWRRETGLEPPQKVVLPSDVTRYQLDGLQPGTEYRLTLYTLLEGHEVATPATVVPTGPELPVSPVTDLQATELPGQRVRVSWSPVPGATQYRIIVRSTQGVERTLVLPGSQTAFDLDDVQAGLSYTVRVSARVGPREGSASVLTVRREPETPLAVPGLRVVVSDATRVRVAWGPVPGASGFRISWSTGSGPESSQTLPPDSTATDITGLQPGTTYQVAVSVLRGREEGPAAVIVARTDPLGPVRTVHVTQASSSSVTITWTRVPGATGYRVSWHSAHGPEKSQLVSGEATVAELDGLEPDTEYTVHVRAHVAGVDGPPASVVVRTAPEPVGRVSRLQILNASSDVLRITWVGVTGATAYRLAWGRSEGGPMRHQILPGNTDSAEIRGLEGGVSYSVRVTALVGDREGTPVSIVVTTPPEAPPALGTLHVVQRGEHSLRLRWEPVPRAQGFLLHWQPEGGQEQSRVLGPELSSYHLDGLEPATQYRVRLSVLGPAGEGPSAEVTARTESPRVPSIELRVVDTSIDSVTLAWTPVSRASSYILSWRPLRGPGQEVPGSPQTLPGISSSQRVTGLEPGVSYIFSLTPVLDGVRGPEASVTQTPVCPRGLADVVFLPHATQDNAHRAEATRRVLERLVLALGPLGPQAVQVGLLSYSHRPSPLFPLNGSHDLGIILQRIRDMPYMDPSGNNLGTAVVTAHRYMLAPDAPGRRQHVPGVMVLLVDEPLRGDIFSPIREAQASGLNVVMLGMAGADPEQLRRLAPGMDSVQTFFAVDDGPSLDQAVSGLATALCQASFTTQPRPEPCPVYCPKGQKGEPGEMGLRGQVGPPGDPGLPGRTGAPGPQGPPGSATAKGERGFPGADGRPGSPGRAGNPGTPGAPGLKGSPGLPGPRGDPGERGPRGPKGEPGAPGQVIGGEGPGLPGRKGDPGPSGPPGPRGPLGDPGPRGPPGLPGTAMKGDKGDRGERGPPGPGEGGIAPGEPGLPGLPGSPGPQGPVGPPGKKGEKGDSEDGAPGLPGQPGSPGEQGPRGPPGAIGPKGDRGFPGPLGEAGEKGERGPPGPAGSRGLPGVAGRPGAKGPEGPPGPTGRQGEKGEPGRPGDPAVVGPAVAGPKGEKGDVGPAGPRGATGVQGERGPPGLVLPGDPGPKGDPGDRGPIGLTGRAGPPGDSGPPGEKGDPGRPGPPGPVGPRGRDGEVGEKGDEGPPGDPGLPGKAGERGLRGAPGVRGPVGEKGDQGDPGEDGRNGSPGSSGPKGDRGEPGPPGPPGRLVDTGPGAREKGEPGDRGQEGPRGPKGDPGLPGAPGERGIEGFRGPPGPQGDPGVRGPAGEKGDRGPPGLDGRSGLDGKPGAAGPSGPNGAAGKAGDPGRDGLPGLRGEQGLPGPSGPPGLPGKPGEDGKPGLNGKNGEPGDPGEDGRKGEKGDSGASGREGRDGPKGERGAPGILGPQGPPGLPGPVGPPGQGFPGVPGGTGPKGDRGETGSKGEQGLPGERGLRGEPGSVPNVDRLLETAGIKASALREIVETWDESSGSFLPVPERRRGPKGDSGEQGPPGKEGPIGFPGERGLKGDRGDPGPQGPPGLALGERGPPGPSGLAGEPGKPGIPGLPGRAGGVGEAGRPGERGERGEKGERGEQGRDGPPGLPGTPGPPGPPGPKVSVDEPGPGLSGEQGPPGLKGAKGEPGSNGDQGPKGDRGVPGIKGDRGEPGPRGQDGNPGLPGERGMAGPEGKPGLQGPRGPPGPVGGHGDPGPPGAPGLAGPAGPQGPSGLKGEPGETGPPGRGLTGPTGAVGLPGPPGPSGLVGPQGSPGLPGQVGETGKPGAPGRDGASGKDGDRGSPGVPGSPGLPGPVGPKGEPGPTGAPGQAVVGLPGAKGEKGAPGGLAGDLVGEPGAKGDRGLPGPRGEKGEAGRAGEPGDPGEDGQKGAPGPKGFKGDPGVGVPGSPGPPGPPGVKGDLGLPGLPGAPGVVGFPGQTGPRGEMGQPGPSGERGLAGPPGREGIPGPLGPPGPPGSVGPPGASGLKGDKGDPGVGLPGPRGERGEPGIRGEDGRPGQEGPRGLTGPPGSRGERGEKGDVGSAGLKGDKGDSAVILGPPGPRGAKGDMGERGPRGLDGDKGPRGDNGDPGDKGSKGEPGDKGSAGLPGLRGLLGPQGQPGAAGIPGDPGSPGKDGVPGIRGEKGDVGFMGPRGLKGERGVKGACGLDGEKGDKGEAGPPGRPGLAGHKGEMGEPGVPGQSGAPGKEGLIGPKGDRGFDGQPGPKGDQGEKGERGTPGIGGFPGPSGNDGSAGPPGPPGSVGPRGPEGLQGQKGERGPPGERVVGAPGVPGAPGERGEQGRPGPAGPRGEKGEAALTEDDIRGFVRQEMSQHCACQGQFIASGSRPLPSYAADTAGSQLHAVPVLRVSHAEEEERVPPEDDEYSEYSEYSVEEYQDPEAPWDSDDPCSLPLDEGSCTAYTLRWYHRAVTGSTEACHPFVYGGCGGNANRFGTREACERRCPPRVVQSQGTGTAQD
Protocol: (§3) In order to confirm the selectivity of peptides of SEQ ID NOS: 1 to 3 to collagen types, slot blotting was performed for types I, IV and VII collagen. The NC membrane was activated with TBST, and the peptides of SEQ ID NOS: 1, 2 and 3 were placed in each well at different concentrations (5, 10, 25, 50, and 100 μg/mL) and allowed to bind to the NC membrane in a vacuum for 2 hours. A 1% solution of each of types I, IV and VII collagen (MyBioSource, Inc., San Diego, CA, USA, MBS2018615) was added to the peptide-bound membrane and allowed to bind to the membrane in a vacuum for 2 hours. The membrane was washed with TBST, and the membrane to which the peptides and types I, IV, and VII collagen were attached was allowed to react with a primary rabbit anti-human type VII collagen antibody (MyBioSource, Inc., San Diego, CA, USA, MBS2004594) at a dilution ratio of 1:800 and with a secondary antibody goat anti-rabbit Ig G (BETHYL Lab., Montgomery, TX, USA, A90-116P) at a dilution ratio of 1:5000. The reacted membrane was washed with TBST, and a chemiluminescence test was performed using WEST-one.

ZO-1 = assay: Real-time RT-PCR of wound-healing marker ZO-1 in colonic epithelial cells; assay type: cell-based; details: Caco-2 cells; 50 and 100 μg/ml; 3 days; FIG. 4
Protocol: as §1, §2

type VII collagen [4] = target: T1, type VII collagen; assay: Slot blotting, binding ability to type VII collagen (Experimental Example 1); details: peptide at 5, 10 and 20 μg/mL, FIG. 2
Protocol: Slot blotting was performed to confirm the ability of the peptides of SEQ ID NOS: 1 and 3 to bind to type VII collagen. The NC membrane was activated with TBST, and the peptides of SEQ ID NOS: 1 and 3 were placed in each well at different concentrations (5, 10, and 20 μg/mL) and allowed to bind to the NC membrane in a vacuum for 2 hours. A 1% solution of type VII collagen (MyBioSource, Inc., San Diego, CA, USA, MBS2018615) was added to the peptide-bound membrane and allowed to bind to the membrane in a vacuum for 2 hours. After washing the membrane with TBST, the membrane to which the peptide and type VII collagen were attached was allowed to react with a primary rabbit anti-human type VII collagen antibody (MyBioSource, Inc., San Diego, CA, USA, MBS2004594) at a dilution ratio of 1:800 and with a secondary antibody goat anti-rabbit Ig G (BETHYL Lab., Montgomery, TX, USA, A90-116P) at a dilution ratio of 1:5000. The reacted membrane was washed with TBST, and a chemiluminescence test was performed using WEST-one. Based on the results of measurement of the ability of the peptide to bind to type VII collagen depending on the peptide concentration, when the concentration of the peptide of SEQ ID NO: 1 was 10 μg/mL or more or the concentration of the peptide of SEQ ID NO: 3 was 5 μg/mL or more, the ability thereof to bind to type VII collagen was confirmed (FIG. 2).

type I collagen = target: T2, type I collagen (Homo sapiens, UniProt P02452+P08123); assay: Slot blotting, selectivity to collagen types: type I (Experimental Example 2); assay type: binding; details: peptide at 5, 10, 25, 50 and 100 μg/mL, FIG. 3
T2 construct: purchased MyBioSource, Inc
Protocol: as §3

Caco-2 cells = assay: Scratch migration of colonic epithelial cells; assay type: cell-based; details: Caco-2 scratch, 100 μM, FIG. 6; for migration area: 2nd day; for cell migration compared to cells not treated with the peptide: up to 48 hours
Protocol: In order to measure cell migration ability, Caco-2 cells (1×10^6 cells) were placed in a 6-well plate and cultured in DMEM supplemented with 10% fetal bovine serum (FBS) and 1% antibiotic-antimycotic solution (Gibco, Grand Island, N.Y., USA). The cells were washed with PBS and allowed to stand overnight in a medium containing 2% FBS. The central portion of the cell layer was scratched using a sterile 200 μl plastic pipette tip. The scratched cell layer was washed twice with PBS to remove unadhered cells. Each of the peptides of SEQ ID NOS: […] at a concentration of 100 μM to the medium, followed by culture for up to 48 hours. The extent of cell migration toward the center from the scratched edges was measured using an Olympus CKX41 inverted microscope (magnification: ×20).

[5] = system: colonic epithelial cells (Caco-2 cell); assay: Proliferation of colonic epithelial cells (CCK-8); assay type: cell-based; details: 100 μM, 3rd day, FIG. 5
Protocol: In order to confirm the proliferation and migration in colonic epithelial cells (Caco-2 cell, ATCC® HTB-37™) by the peptide according to the present invention, the cells were dispensed in an amount of 5×10^3 cells/well in a 96-well plate and then cultured for 24 hours in DMEM (Dulbecco's Modified Eagle Medium, Gibco). The peptides (SEQ ID NOS: 1, 2, and 3) were dispensed at a concentration of 100 μM in the cells and then cultured for up to 3 days at intervals of 1 day. The cell count was measured using a CCK-8 (Cell Counting Kit-8, CK04, Dojindo Lab.). After 1, 2, and 3 days, the medium containing the peptide was removed, 10% of a CCK-8 solution was added to fresh DMEM, and 100 μl thereof was then dispensed. After 1 hour and 30 minutes, absorbance was measured at 450 nm.

type IV collagen = assay: Slot blotting, selectivity to collagen types: type IV (Experimental Example 2); assay type: binding; details: peptide up to 100 μg/mL, FIG. 3
Protocol: as §3

integrin beta 1 = target: T3, integrin beta 1 (Mus musculus, UniProt P09055); assay: Confocal co-localization of Cy5.5-labeled peptide with integrin beta 1 in colon tissue; assay type: in vivo, mice; details: 1 hour after injection, FIG. 11
T3 construct: from tissue; host or cells: colon of mice with DSS-induced colitis
T3 sequence (P09055 21-798): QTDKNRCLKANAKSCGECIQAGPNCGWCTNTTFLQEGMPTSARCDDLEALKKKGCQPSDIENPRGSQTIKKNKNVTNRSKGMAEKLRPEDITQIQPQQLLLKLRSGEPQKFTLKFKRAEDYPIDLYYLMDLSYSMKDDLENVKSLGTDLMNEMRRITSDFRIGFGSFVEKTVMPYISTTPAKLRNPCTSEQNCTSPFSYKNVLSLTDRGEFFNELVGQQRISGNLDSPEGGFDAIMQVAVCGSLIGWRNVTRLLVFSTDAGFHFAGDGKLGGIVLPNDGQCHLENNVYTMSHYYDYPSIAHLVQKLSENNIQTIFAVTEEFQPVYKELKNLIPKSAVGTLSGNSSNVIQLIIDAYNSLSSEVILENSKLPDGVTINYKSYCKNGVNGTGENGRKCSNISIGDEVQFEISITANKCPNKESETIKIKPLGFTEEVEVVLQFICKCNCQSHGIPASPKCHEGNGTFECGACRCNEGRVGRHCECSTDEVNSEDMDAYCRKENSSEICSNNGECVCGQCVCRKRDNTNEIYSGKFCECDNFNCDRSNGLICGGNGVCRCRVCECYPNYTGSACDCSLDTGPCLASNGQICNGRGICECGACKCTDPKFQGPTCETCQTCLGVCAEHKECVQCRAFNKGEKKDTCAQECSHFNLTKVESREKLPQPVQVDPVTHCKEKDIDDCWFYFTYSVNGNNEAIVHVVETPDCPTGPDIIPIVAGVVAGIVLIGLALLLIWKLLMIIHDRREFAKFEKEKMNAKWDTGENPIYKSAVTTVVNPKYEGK
From the text: In order to confirm co-localization of synthesized peptide to the colon, inflammation was induced in mice using 5% DSS in drinking water for 7 days, followed by the cy5.5-labeled peptide of SEQ ID NO: 1 was […] thereto. An hour after injection, each mouse was sacrificed and the colon tissue was isolated for analysis. Excised colons were fixed with 4% paraformaldehyde, and made frozen tissue block with Tissue-Tek® O.C.T. compound (4583, Sakura). Frozen tissue block was sectioned using clinical cryostat (CM1950, Leica) and placed on microscope slides.
Each sectioned tissue slides were stained for immunofluorescence. In brief, sectioned slides were permeabilized with 0.5% Triton X-100 (9036-19-5, Sigma-Aldrich) in PBS for 10 min. Next, 5% BSA in PBS were treated 30 minutes for blocking, followed by overnight incubation of anti-integrin beta 1 diluted in blocking buffer. After washing the slides, Alexa Fluor 488 conjugated anti-mouse secondary antibody (A-11001, Thermo Fisher Scientific) was diluted and incubated for an hour, and DAPI staining. Slides were mounted for imaging in confocal microscopy (LSM700, Carl Zeiss).

[6] = system: DSS-induced chronic inflammatory bowel disease; assay: Therapeutic effect in animal model of DSS-induced chronic inflammatory bowel disease; assay type: in vivo, ICR mice
Protocol: In order to confirm the therapeutic effect of the synthesized peptide in animals, chronic inflammatory bowel disease was induced with DSS in ICR mice (Orient Bio). 1.5% DSS was used as drinking water for 7 days, water not containing DSS was provided for the next 7 days, and 1.5% DSS was used as drinking water for the next 7 days (FIG. 9A). Thereafter, the peptide of SEQ ID NO: 1 was administered through SC injection. The normal group (Normal, n=9) was not treated with DSS, and the untreated group (Untreated, n=9) was treated only with DSS, and no drug was injected. The positive control group (Infliximab, 5 mg/kg, n=9) and the peptide of SEQ ID NO: 1 (30 mg/kg, n=9) were injected once daily for 14 days. 28 days after the start of DSS administration, the animals were sacrificed by CO2 hyperventilation, the colons were collected, and the lengths thereof were compared. Additionally, the tissue was fixed and processed to prepare a paraffin block, and H&E staining was performed to determine whether the intestinal tissue was damaged.

selectivity to type VII collagen versus types I and IV collagen (type VII collagen [3]) | peptide concentration at which binding to type VII collagen was observed (type VII collagen [3]) | peptide concentration at which binding to type I collagen was observed (type I collagen) | binding to type IV collagen (type IV collagen) | Compound | fluorescence in small intestine and colon (IVIS) [2] | gene expression of E-cadherin (E-cadherin) | gene expression of ZO-1 (ZO-1) | migration area (Caco-2 cells) | cell migration compared to cells not treated with the peptide (Caco-2 cells) | cell proliferation rate compared to the control group (cells not treated with the peptide) [5] | further results
– | – | – | – | O=C(CCCCCCC(=O)Nc1ccccc1)NO [SAHA] | – | – | – | – | – | – | colon length ([1]; 5% DSS 7 days, IP once daily, SEQ ID NO: 1 50 mg/kg, SAHA 25 mg/kg, antibody 1 mg/kg, p<0.05 vs untreated, FIG. 8): maintained the colon length; inflammatory cells in the intestinal mucosa (H&E histology) ([1]; acute DSS model, FIG. 8 part c): significantly decreased; villi structure (H&E histology) ([1]; acute DSS model, FIG. 8 part c): villi structure was maintained well
– | – | – | – | Cy5.5 [reference compound] | almost no fluorescence was observed at 180 minutes | – | – | – | – | – | –
higher selectivity to type VII collagen | at least 10 μg/mL | 100 µg/mL | did not bind | LTEFPLRMRDWLKN (Human osteonectin 160-173) [SEQ ID NO: 3] | – | increased with an increase in the concentration of the peptide | increased with an increase in the concentration of the peptide | 56% | increased cell migration | 51% | peptide concentration at which the ability to bind to type VII collagen was confirmed (type VII collagen [4]): ≥ 5 µg/mL
higher selectivity to type VII collagen | at least 20 μg/mL | 50 µg/mL | did not bind | RPRYYLYKHAYFYPHLKRFP (human bone sialoprpotein II 41-60) [SEQ ID NO: 2, Human bone sialoprotein II 41-60] | – | increased with an increase in the concentration of the peptide | increased with an increase in the concentration of the peptide | 75% | increased cell migration | 56% | –
– | – | – | – | YGLRSKSKKFRRPDIQYPDAT-NH2 (C-terminus assumed) [SEQ ID NO: 1] | red fluorescence was constantly observed in the small intestine and colon from the initial 30 minutes to 180 minutes | – | – | – | – | – | localization of peptide in DSS-induced mouse colon (integrin beta 1; 5% DSS 7 days): detected in colon tissue; localization of peptide in normal colon (integrin beta 1): does not show any localization
– | – | – | – | infliximab | – | – | – | – | – | – | inflammatory cells in the intestinal mucosa (H&E histology) ([6]; FIG. 9G): inflammatory cells in the intestinal mucosa were observed; villi structure (H&E histology) ([6]; FIG. 9G): some improvement compared to the untreated group, but villous damage; colon length ([6]; SEQ ID NO: 1 30 mg/kg SC, infliximab 5 mg/kg, once daily 14 days, p<0.05 vs untreated, FIG. 9D): maintained the colon length
